According to PMC5557681 (Journal of veterinary cardiology : the official journal of …, 2017):
Structures can show the parent of a compound that is named as a salt. Where two headings read alike, the source gives them in different places.

What was measured:
[1] = Analyte stability during storage in citrate or EDTA treated feline plasma; assay type: physicochemical; settings: for Time stable at room temperature: EDTA treated feline plasma; for Deviation from nominal concentration (%): EDTA treated plasma, spike CAM-D 100, clopidogrel 38.3, acid 500 ng/mL; for Time stable at −80°C: citrate treated feline plasma; for Time stable at room temperature (abstract) / Time stable at −80°C (abstract): feline plasma
[2] = in vivo, po
[3] = cited from earlier work
in vivo = settings: po, 18.75 mg
[4] = humans; cited from earlier work
[5] = tested on: feline cardiogenic thromboembolism; settings: cats; cited from earlier work
[6] = tested on: ADP-induced platelet aggregation; settings: cited from earlier work

COC(=O)C(c1ccccc1Cl)N1CCC2SC(=O)C=C2C1.Cl (stereo not shown) [2-oxo-clopidogrel, 2-oxo-clopidogrel hydrochloride]
Stability in feline plasma (in words) ([1]; all storage temperatures tested, EDTA and citrate treated plasma): unstable
Decrease from nominal concentration within 6 hours ([1]; all storage temperatures tested, EDTA treated and citrate treated plasma, data not shown): > 25%

O=C(O)[C@H](c1ccccc1Cl)N1CCc2sccc2C1 [Clopidogrel carboxylic acid, clopidogrel carboxylic acid]
Time stable at room temperature [1]: at least 1 week
Deviation from nominal concentration (%) ([1]; 4°C, 6 h): −6%
Deviation from nominal concentration (%) ([1]; RT, 1 wk): −1%
Deviation from nominal concentration (%) ([1]; RT, 24 h): −2%
Deviation from nominal concentration (%) ([1]; RT, 48 h): −10%
Deviation from nominal concentration (%) ([1]; RT, 72 h): 1%
Time stable at −80°C [1]: at least 9 months
Time stable at room temperature (abstract) [1]: 1 week
Time stable at −80°C (abstract) [1]: 9 months
AUC that was extrapolated [2]: 15–20%
Cmax and AUC values compared with clopidogrel and CAM-D ([2]; 18.75 mg): over 100 fold
Cmax values (range of both cats) ([2]; 18.75 mg): 2,900–3,300 ng/mL
Elimination half-life compared with clopidogrel and CAM-D ([2]; 18.75 mg): about 2 times
Time post administration at which Cmax was reached (both cats) ([2]; 18.75 mg): 1.5 to 2 h

COC(=O)[C@H](c1ccccc1Cl)N1CCc2sccc2C1 [Clopidogrel, S-(+)-clopidogrel hydrogen sulfate, reference compound]
Cmax in humans ([3]; healthy humans / people): 20 ng/mL
Tmax in people ([3]; post administration): around 1 hour
Time stable at room temperature [1]: at least 1 week
Deviation from nominal concentration (%) ([1]; 4°C, 6 h): −7%
Deviation from nominal concentration (%) ([1]; RT, 1 wk): 6%
Deviation from nominal concentration (%) ([1]; RT, 24 h): −2%
Deviation from nominal concentration (%) ([1]; RT, 48 h): −5%
Deviation from nominal concentration (%) ([1]; RT, 72 h): −1%
Time stable at −80°C [1]: at least 9 months
Time stable at room temperature (abstract) [1]: 1 week
Time stable at −80°C (abstract) [1]: 9 months
AUC(0-t) (in vivo; AUClast (0 to 24hrs)): 374 ng·h/mL
Cmax (in vivo; Cmax): 134 ng/mL
half-life (in vivo; t1/2 (elimination half-life)): 5.4 h
AUC that was extrapolated ([2]; cat): < 2%
AUClast (0 to 24hrs) ([2]; 18.75 mg): 225 ng·h/mL
Cmax ([2]; 18.75 mg): 144 ng/mL
t1/2 (elimination half-life) ([2]; 18.75 mg): 5.2 h
Proportion metabolized in the liver to inactive clopidogrel carboxylic acid [4]: 85%
Prevention of feline cardiogenic thromboembolism [5]: superior to aspirin

COC(=O)C(c1ccccc1Cl)N1CCC(S)C(=CC(=O)O)C1 (stereo not shown) [H4]
Antiplatelet activity relative to H2 [6]: about twice the activity of H2
